The nature of data set [1]: Stability of compound in presence water assessed as pseudo-first order degradation rate constant at 10 uM at 20degC over 24 hrs. The note with it: buffer. The data set is classed as physicochemical.
Data set [2] is described as follows: Stability of compound in presence of […] assessed as pseudo-first order degradation rate constant at 10 uM at 20degC over 24 hrs. The format is ADME.
The nature of data set [3]: Stability of compound in presence of oxyhemoglobin assessed as pseudo-first order degradation rate constant at 10 uM at 20degC over 24 hrs. The format is ADME.

Molecules are shown by their SMILES.

`C[C@@H]1CC[C@H]2[C@@H](C)C(=O)O[C@@H]3O[C@@]4(C)CC[C@@H]1[C@]32OO4` [ARTEMISININ]: the values for the Activity in data set [1], in data set [2] and in data set [3] were 0.0004 h⁻¹, 0.003 h⁻¹ and 0.008 h⁻¹, respectively.
`O=C(O)C[C@H]1CC[C@]2(CC1)OO[C@]1(O2)C2CC3CC(C2)CC1C3`: the Activity was 0.006 h⁻¹ in data set [1], 0.006 h⁻¹ in data set [2] and 0.01 h⁻¹ in data set [3].
For `CC(C)(N)CNC(=O)C[C@H]1CC[C@]2(CC1)OO[C@]1(O2)C2CC3CC(C2)CC1C3` [OZ277], the Activity in data set [1] stood at 0.015 h⁻¹; in data set [2], 0.013 h⁻¹; in data set [3], 0.01 h⁻¹.
As for `CO[C@H]1O[C@@H]2O[C@@]3(C)CC[C@H]4[C@H](C)CC[C@@H]([C@H]1C)[C@@]24OO3` [ARTEMETHER], the Activity in data set [1] came out at 0.002 h⁻¹; in data set [2], 0.002 h⁻¹; in data set [3] it was 0.007 h⁻¹.
On to `C[C@H]1[C@@H](O)O[C@@H]2O[C@@]3(C)CC[C@H]4[C@H](C)CC[C@@H]1[C@@]24OO3` [ARTENIMOL], for which the figures for the Activity in data set [1], in data set [2] and in data set [3] were 0.00001 h⁻¹, 0.004 h⁻¹ and 0.017 h⁻¹, respectively.

The values above are taken from ChEMBL document CHEMBL1649549, “Stability of peroxide antimalarials in the presence of human hemoglobin” (Antimicrob Agents Chemother, 2009).
